From patent US9113629B2, “4-amino-6-(4-substituted-phenyl)-picolinates and 6-amino-2-(4-substituted-phenyl)-pyrimidine-4-carboxylates and their use as herbicides” (DOW AGROSCIENCES LLC, priority 2013, dated 2015)
Read-outs that look alike come from different tables or passages of the source. Each block holds one molecule with its values, some of them ahead of it.

Experiments:
[1] = system: Key Broadleaf Weed and Crop Species; assay: Post-emergent Test II herbicidal activity (Table 5); format: in vivo; details: post-emergence, 336 h, 14 days after application
Outline: (§1)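 Foliar application at 187 L/ha to greenhouse-grown seedlings (first or second true leaf); subirrigation thereafter. Visual 0–100% injury at 14 d relative to untreated plants.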

[2] = system: Key Grass and Sedge Weeds as well as Grass Crops; assay: Post-emergent Test II herbicidal activity (Table 6); format: in vivo; details: post-emergence, 336 h; for pest or weed control at 70 g/ha: application rate 70 g ai/ha; for pest or weed control at 140 g/ha: application rate 140 g ai/ha
Outline: as §1

[3] = CYPES: yellow nutsedge (Cyperus esculentus), read-out: Visual Growth Reduction (%) 14 Days After Application, CYPES
[4] = DIGSA: crabgrass (Digitaria sanguinalis), read-out: Visual Growth Reduction (%) 14 Days After Application, DIGSA
[5] = ECHCG: barnyardgrass (Echinochloa crus-galli), read-out: Visual Growth Reduction (%) 14 Days After Application, ECHCG
[6] = ORYSA: rice (Oryza sativa), read-out: Visual Growth Reduction (%) 14 Days After Application, ORYSA
[7] = SETFA: giant foxtail (Setaria faberi), read-out: Visual Growth Reduction (%) 14 Days After Application, SETFA
[8] = SORVU: grain sorghum (Sorghum vulgare), read-out: Visual Growth Reduction (%) 14 Days After Application, SORVU
[9] = TRZSS (wheat, Triticum aestivum), read-out: Visual Growth Reduction (%) 14 Days After Application, TRZSS
[10] = ZEAMX: maize, corn (Zea mays), read-out: Visual Growth Reduction (%) 14 Days After Application, ZEAMX
[11] = Triticum aestivum, TRZSS (wheat), read-out: Visual Growth Reduction (%) 14 Days After Application, TRZSS

melting point: 164 to 168 °C
Structure (SMILES): C=Cc1c(N)nc(-c2ccc(C#N)cc2F)nc1C(=O)O [Compound 5, 6-Amino-2-(4-cyano-2-fluorophenyl)-5-vinylpyrimidine-4-carboxylic acid]
pest or weed control at 70 g/ha ([1]; ABUTH: velvetleaf (Abutilon theophrasti), 70 g ai/ha, post-emergent, read-out: Visual Growth Reduction (%) 14 Days After Application ABUTH): 0 to 29%
pest or weed control at 140 g/ha ([1]; ABUTH: velvetleaf (Abutilon theophrasti), 140 g ai/ha, post-emergent, read-out: Visual Growth Reduction (%) 14 Days After Application ABUTH): 0 to 29%
pest or weed control at 70 g/ha ([1]; AMARE: redroot pigweed (Amaranthus retroflexus), 70 g ai/ha, post-emergent, read-out: Visual Growth Reduction (%) 14 Days After Application AMARE): 0 to 29%
pest or weed control at 140 g/ha ([1]; AMARE: redroot pigweed (Amaranthus retroflexus), 140 g ai/ha, post-emergent, read-out: Visual Growth Reduction (%) 14 Days After Application AMARE): 0 to 29%
pest or weed control at 70 g/ha ([1]; BRSNN: oilseed-rape, canola (Brassica napus), 70 g ai/ha, post-emergent, read-out: Visual Growth Reduction (%) 14 Days After Application BRSNN): 0 to 29%
pest or weed control at 140 g/ha ([1]; BRSNN: oilseed-rape, canola (Brassica napus), 140 g ai/ha, post-emergent, read-out: Visual Growth Reduction (%) 14 Days After Application BRSNN): 0 to 29%
pest or weed control at 70 g/ha ([1]; CHEAL: lambsquarters (Chenopodium album), 70 g ai/ha, post-emergent, read-out: Visual Growth Reduction (%) 14 Days After Application CHEAL): 0 to 29%
pest or weed control at 140 g/ha ([1]; CHEAL: lambsquarters (Chenopodium album), 140 g ai/ha, post-emergent, read-out: Visual Growth Reduction (%) 14 Days After Application CHEAL): 0 to 29%
pest or weed control at 70 g/ha ([1]; EPHHL: wild poinsettia (Euphorbia heterophylla), 70 g ai/ha, post-emergent, read-out: Visual Growth Reduction (%) 14 Days After Application EPHHL): 0 to 29%
pest or weed control at 140 g/ha ([1]; EPHHL: wild poinsettia (Euphorbia heterophylla), 140 g ai/ha, post-emergent, read-out: Visual Growth Reduction (%) 14 Days After Application EPHHL): 0 to 29%
pest or weed control at 70 g/ha ([1]; HELAN: sunflower (Helianthus annuus), 70 g ai/ha, post-emergent, read-out: Visual Growth Reduction (%) 14 Days After Application HELAN): 85 to 94%
pest or weed control at 140 g/ha ([1]; HELAN: sunflower (Helianthus annuus), 140 g ai/ha, post-emergent, read-out: Visual Growth Reduction (%) 14 Days After Application HELAN): 85 to 94%
pest or weed control at 70 g/ha ([1]; VIOTR: wild pansy (Viola tricolor), 70 g ai/ha, post-emergent, read-out: Visual Growth Reduction (%) 14 Days After Application VIOTR): 0 to 29%
pest or weed control at 140 g/ha ([1]; VIOTR: wild pansy (Viola tricolor), 140 g ai/ha, post-emergent, read-out: Visual Growth Reduction (%) 14 Days After Application VIOTR): 0 to 29%
pest or weed control at 70 g/ha [2, 3]: 0 to 29%
pest or weed control at 140 g/ha [2, 3]: 0 to 29%
pest or weed control at 70 g/ha [2, 4]: 0 to 29%
pest or weed control at 140 g/ha [2, 4]: 0 to 29%
pest or weed control at 70 g/ha [2, 5]: 0 to 29%
pest or weed control at 140 g/ha [2, 5]: 0 to 29%
pest or weed control at 70 g/ha [2, 6]: 0 to 29%
pest or weed control at 140 g/ha [2, 6]: 0 to 29%
pest or weed control at 70 g/ha [2, 7]: 0 to 29%
pest or weed control at 140 g/ha [2, 7]: 0 to 29%
pest or weed control at 70 g/ha [2, 8]: 0 to 29%
pest or weed control at 140 g/ha [2, 8]: 0 to 29%
pest or weed control at 70 g/ha [2, 9]: 0 to 29%
pest or weed control at 140 g/ha [2, 9]: 0 to 29%
pest or weed control at 70 g/ha [2, 10]: 0 to 29%
pest or weed control at 140 g/ha [2, 10]: 0 to 29%

melting point: 145 to 146 °C
Structure (SMILES): COC(=O)c1nc(-c2ccc(C(F)(F)F)c(F)c2)cc(N)c1Cl [Compound 29, methyl 4-amino-3-chloro-6-(3-fluoro-4-(trifluoromethyl)phenyl)picolinate]
pest or weed control at 70 g/ha ([1]; ABUTH: velvetleaf (Abutilon theophrasti), application rate 70 g ai/ha, read-out: Visual Growth Reduction (%) 14 Days After Application, ABUTH): 85 to 94%
pest or weed control at 140 g/ha ([1]; ABUTH: velvetleaf (Abutilon theophrasti), application rate 140 g ai/ha, read-out: Visual Growth Reduction (%) 14 Days After Application, ABUTH): 85 to 94%
pest or weed control at 70 g/ha ([1]; AMARE: redroot pigweed (Amaranthus retroflexus), application rate 70 g ai/ha, read-out: Visual Growth Reduction (%) 14 Days After Application, AMARE): 60 to 74%
pest or weed control at 140 g/ha ([1]; AMARE: redroot pigweed (Amaranthus retroflexus), application rate 140 g ai/ha, read-out: Visual Growth Reduction (%) 14 Days After Application, AMARE): 60 to 74%
pest or weed control at 70 g/ha ([1]; BRSNN: oilseed-rape, canola (Brassica napus), application rate 70 g ai/ha, read-out: Visual Growth Reduction (%) 14 Days After Application, BRSNN): 45 to 59%
pest or weed control at 140 g/ha ([1]; BRSNN: oilseed-rape, canola (Brassica napus), application rate 140 g ai/ha, read-out: Visual Growth Reduction (%) 14 Days After Application, BRSNN): 60 to 74%
pest or weed control at 70 g/ha ([1]; CHEAL: lambsquarters (Chenopodium album), application rate 70 g ai/ha, read-out: Visual Growth Reduction (%) 14 Days After Application, CHEAL): 95 to 100%
pest or weed control at 140 g/ha ([1]; CHEAL: lambsquarters (Chenopodium album), application rate 140 g ai/ha, read-out: Visual Growth Reduction (%) 14 Days After Application, CHEAL): 95 to 100%
pest or weed control at 70 g/ha ([1]; EPHHL: wild poinsettia (Euphorbia heterophylla), application rate 70 g ai/ha, read-out: Visual Growth Reduction (%) 14 Days After Application, EPHHL): 95 to 100%
pest or weed control at 140 g/ha ([1]; EPHHL: wild poinsettia (Euphorbia heterophylla), application rate 140 g ai/ha, read-out: Visual Growth Reduction (%) 14 Days After Application, EPHHL): 95 to 100%
pest or weed control at 70 g/ha ([1]; HELAN: sunflower (Helianthus annuus), application rate 70 g ai/ha, read-out: Visual Growth Reduction (%) 14 Days After Application, HELAN): 85 to 94%
pest or weed control at 140 g/ha ([1]; HELAN: sunflower (Helianthus annuus), application rate 140 g ai/ha, read-out: Visual Growth Reduction (%) 14 Days After Application, HELAN): 85 to 94%
pest or weed control at 70 g/ha ([1]; VIOTR: wild pansy (Viola tricolor), application rate 70 g ai/ha, read-out: Visual Growth Reduction (%) 14 Days After Application, VIOTR): 0 to 29%
pest or weed control at 140 g/ha ([1]; VIOTR: wild pansy (Viola tricolor), application rate 140 g ai/ha, read-out: Visual Growth Reduction (%) 14 Days After Application, VIOTR): 0 to 29%
pest or weed control at 70 g/ha [2, 11]: 0 to 29%
pest or weed control at 140 g/ha [2, 11]: 0 to 29%
pest or weed control at 70 g/ha [2, 3]: 30 to 44%
pest or weed control at 140 g/ha [2, 3]: 45 to 59%
pest or weed control at 70 g/ha [2, 4]: 30 to 44%
pest or weed control at 140 g/ha [2, 4]: 60 to 74%
pest or weed control at 70 g/ha [2, 5]: 0 to 29%
pest or weed control at 140 g/ha [2, 5]: 0 to 29%
pest or weed control at 70 g/ha [2, 6]: 0 to 29%
pest or weed control at 140 g/ha [2, 6]: 0 to 29%
pest or weed control at 70 g/ha [2, 7]: 0 to 29%
pest or weed control at 140 g/ha [2, 7]: 0 to 29%
pest or weed control at 70 g/ha [2, 8]: 45 to 59%
pest or weed control at 140 g/ha [2, 8]: 45 to 59%
pest or weed control at 70 g/ha [2, 10]: 0 to 29%
pest or weed control at 140 g/ha [2, 10]: 0 to 29%
